Measured values taken from patent US8552069B2, “Method for treatment of obesity, dyslipidemia, fatty liver or insulin resistance syndrome comprising camphene as active ingredient” (Industry-Academic Cooperation Foundation, Yonsei University, priority 2009, dated 2013).
Marks after values point to notes of the source that are not given here.

Legend:
[1] = tested on: NF-κB; conditions: mouse macrophage cells (RAW 264.7); cited from earlier work
[2] = tested on: TNFα; assay: RT-PCR mRNA expression in visceral fat tissue: TNFα; type: in vivo, mouse; conditions: versus HFD group, FIGS. 6a and 6b
Experimental: (§1) After adding 1 mL of TRIzol solution per 0.1 g of epididymal fat tissue, centrifugation was performed at 4° C. and 12,000×g for 10 minutes. The supernatant was transferred to a fresh tube and vortexed after adding 200 μL of chloroform. After repeating this procedure twice, the supernatant was transferred to a fresh tube and isopropanol was added to the supernatant at a ratio of 1:1. After shaking strongly for 10 times and keeping at room temperature for 10 minutes, centrifugation was performed at 4° C. and 12,000×g for 10 minutes. After removing the supernatant and adding 1 mL of 70% ethanol to the remaining pellets, centrifugation was performed at 4° C. and 7,500×g for 5 minutes. After removing ethanol, the RNA pellets held in the tube were dried at room temperature for 5 minutes and dissolved using nuclease-free water. The concentration of the extracted RNA was measured at 260 nm and 280 nm using a UV/VIS spectrophotometer (Beckman Coulter, DU730), and the integrity of RNA was analyzed by agarose gel electrophoresis.
(§2) cDNA was synthesized by performing reverse transcription for the RNA sample extracted from the epididymal fat tissue using oligo-dT primer and SuperScript reverse transcriptase (GIBCO BRL, Gaithersburg, Md., USA). […]

[3] = tested on: C57BL/6J mice; assay: Obesity-related biochemical indices in liver tissue of high-fat diet mice; type: in vivo, mouse; conditions: 10 weeks
Experimental: (§3) The obesity-inducing diet used in this example was high-fat diet (HFD: 40% fat calorie, 17 g lard+3% corn oil/100 g diet). Camphene-containing diet had the same composition as HFD, except that camphene was included at 0.2%. Normal diet (ND) was prepared with the composition of AIN-76 rodent diet (American Institute of Nutrition, Report of the American Institute of Nutrition ad hoc committee on standards for nutritional studies. J. Nutr. 107: 1340-1348, 1977) (see Table 1). (±)-Camphene was purchased from Sigma-Aldrich. 5-week-old male C57BL/6J mice (Orient, Korea) were accustomed to the laboratory environment for 1 week while feeding solid feed. Then, they were randomly divided into high-fat diet control group and test group and bred for a total of 10 weeks. The diet was given between 10 and 11 a.m. every day together with water. Diet intake was measured every day and body weight was measured once in 3 days. In order to avoid transient body weight increase after feed intake, body weight was measured 2 hours after removing the feed. Feeding efficiency was calculated by dividing accumulated body weight gain during the test period, i.e. from the test diet was given first until the day when the mouse was sacrificed, by total diet intake. After fasting the test animal for at least 12 hours and anesthetizing with diethyl ether, blood, liver and visceral fat (epididymal fat, perirenal fat, mesenteric fat and retroperitoneal fat) were taken and weighed after washing with 0.1 M PBS (pH 7.4). Blood taken from the abdominal aorta was centrifuged at 1000×g for 15 minutes to separate the serum. Total cholesterol, triglyceride and glucose levels in the serum were measured twice for each using a commercially available kit (Bio Clinical system), and insulin level was measured by ELISA using a mouse insulin kit (Shibayaki, Japan). Lipids were extracted from the liver tissue according to Folch et al.'s method. After adding 1 mL of distilled water to 0.25 g of liver tissue, the liver tissue was homogenized using a Polytron homogenizer (IKA-Werke GmbH & Co., Ultra-Turrax, Staufen, Germany). After adding 5 mL of chloroform:methanol solution (2:1, v/v) to the homogenate and mixing well, the mixture was centrifuged at 1000×g for 10 minutes. After adding 2 mL of chloroform:methanol solution (2:1, v/v) again to the supernatant, the same procedure was repeated to completely separate the lipid components of the liver. After adding 3 mL of chloroform:methanol:0.05% CaCl2 (3:48:47, v/v/v) solution to the remaining pellets and mixing well for 1 minute, followed by centrifugation at 1000×g for 10 minutes, the resulting pellets were completely dried with nitrogen gas. The dried lipids were dissolved in 1 mL of methanol and then analyzed. The same kit (Bio Clinical system) as the one used for the serum analysis was used to measure the triglyceride level of the liver tissue.

[4] = tested on: PPARγ2; assay: RT-PCR mRNA expression in epididymal (visceral) fat tissue: PPARγ2; type: in vivo, mouse; conditions: as compared to the high-fat diet group, FIGS. 5a and 5b
Experimental: as §1, §2

[5] = tested on: aP2; assay: RT-PCR mRNA expression in epididymal (visceral) fat tissue: aP2; type: in vivo, mouse; conditions: as compared to the high-fat diet group, FIGS. 5a and 5b
Experimental: as §1, §2

[6] = tested on: C57BL/6J mice; assay: Obesity-related biochemical indices in blood (serum) of high-fat diet mice; type: in vivo, mouse; conditions: 10 weeks
Experimental: as §3

[7] = tested on: C57BL/6J mice; assay: Body weight and visceral fat weight of mice fed high-fat diet containing camphene; type: in vivo, mouse; conditions: 0.2% camphene in high-fat diet, 10 weeks
Experimental: The obesity-inducing diet used in this example was high-fat diet (HFD: 40% fat calorie, 17 g lard+3% corn oil/100 g diet). Camphene-containing diet had the same composition as HFD, except that camphene was included at 0.2%. Normal diet (ND) was prepared with the composition of AIN-76 rodent diet (American Institute of Nutrition, Report of the American Institute of Nutrition ad hoc committee on standards for nutritional studies. J. Nutr. 107: 1340-1348, 1977) (see Table 1). (±)-Camphene was purchased from Sigma-Aldrich. [table] 5-week-old male C57BL/6J mice (Orient, Korea) were accustomed to the laboratory environment for 1 week while feeding solid feed. Then, they were randomly divided into high-fat diet control group and test group and bred for a total of 10 weeks. The diet was given between 10 and 11 a.m. every day together with water. Diet intake was measured every day and body weight was measured once in 3 days. In order to avoid transient body weight increase after feed intake, body weight was measured 2 hours after removing the feed. Feeding efficiency was calculated by dividing accumulated body weight gain during the test period, i.e. from the test diet was given first until the day when the mouse was sacrificed, by total diet intake. After fasting the test animal for at least 12 hours and anesthetizing with diethyl ether, blood, liver and visceral fat (epididymal fat, perirenal fat, mesenteric fat and retroperitoneal fat) were taken and weighed after washing with 0.1 M PBS (pH 7.4). Blood taken from the abdominal aorta was centrifuged at 1000×g for 15 minutes to separate the serum.

[8] = tested on: IL-6; assay: RT-PCR mRNA expression in visceral fat tissue: IL-6; type: in vivo, mouse; conditions: versus HFD group, FIGS. 6a and 6b
Experimental: as §1, §2

[9] = tested on: 3T3-L1 cells; assay: Suppression of differentiation of 3T3-L1 preadipocytes into adipocytes (Oil Red O staining); type: cell-based, mouse; conditions: camphene 0.1, 1, 10, 50 and 100 μM, 14 days
Experimental: Mouse 3T3-L1 cells were used to investigate the effect of camphene on differentiation and growth of adipocytes. The preadipocytes, 3T3-L1 cells, were seeded on a 12-well plate and cultured to confluency using Dulbecco's modified Eagle's medium (DMEM) containing 1% penicillin-streptomycin, 1% nonessential amino acid and 10% fatal bovine serum (FBS), in a 5% CO2 incubator at 37° C. The 3T3-L1 cells grown to confluency were cultured for 2 days in a medium containing MDI (0.5 mM isobutylmethylxanthine, 1 μM dexamethasone and 1 μg/mL insulin) to differentiate them into adipocytes. Then, the cells were further cultivated in DMEM containing 1 μg/mL insulin to differentiate them into mature adipocytes. The cells were further cultured for 10 more days while replacing DMEM every other day to obtain fully differentiated adipocytes. From the first day when MDI was added to the 3T3-L1 cells, camphene was treated at concentrations of 0.1, 1, 10, 50 and 100 μM with 2-day intervals. (±)-Camphene purchased from Sigma-Aldrich was used after being dissolved in DMSO. Only DMSO was added to the negative control group. […] In order to measure the level of triglyceride contained in the differentiated 3T3-L1 cells, the stained lipid droplets were dissolved in 1 mL of isobutanol and OD value was measured at 600 nm.

[10] = tested on: Gram-positive bacteria, Gram-negative bacteria and fungi; conditions: cited from earlier work
[11] = tested on: UCP1; assay: RT-PCR mRNA expression in visceral fat tissue: UCP1; type: in vivo, mouse; conditions: versus HFD group, FIG. 7
Experimental: as §1, §2

[12] = tested on: C/EBPα; assay: RT-PCR mRNA expression in epididymal (visceral) fat tissue: C/EBPα; type: in vivo, mouse; conditions: as compared to the high-fat diet group, FIGS. 5a and 5b
Experimental: as §1, §2

[13] = tested on: UCP3; assay: RT-PCR mRNA expression in visceral fat tissue: UCP3; type: in vivo, mouse; conditions: versus HFD group, FIG. 7
Experimental: as §1, §2

[14] = liver tissue, camphene-administered group
[15] = blood, camphene-administered group

C=C1C2CCC(C2)C1(C)C (racemic) [camphene]
activity of the inflammation-inducing factor NF-κB [1]: suppressing the activity
TNFα gene expression in visceral fat tissue [2]: decreased expression of TNFα and IL-6 genes back to the level of the ND group
lower cholesterol level in the liver tissue as compared to HFD ([3]; 0.2% camphene in high-fat diet): 86%
lower free fatty acid level in the liver tissue as compared to HFD ([3]; 0.2% camphene in high-fat diet): 73%
lower liver weight per body weight as compared to HFD ([3]; 0.2% camphene in high-fat diet): 22%
lower triglyceride level in the liver tissue as compared to HFD ([3]; 0.2% camphene in high-fat diet): 58%
Liver weight ([3]; camphene-administered group): 4.3 ± 0.32^b g/100 g body wt
Cholesterol [3, 14]: 10.3 ± 2.6^c μmol/g
Free fatty acid [3, 14]: 6.5 ± 0.91^b μEq/g
Triglyceride [3, 14]: 14.7 ± 2.3^c μmol/g
PPARγ2 mRNA expression in visceral fat tissue [4]: significantly decreased expression
aP2 mRNA expression in visceral fat tissue [5]: significantly decreased expression
lower arteriosclerotic index as compared to HFD ([6]; 0.2% camphene in high-fat diet): 59%
lower fasting blood sugar level as compared to HFD ([6]; 0.2% camphene in high-fat diet): 10%
lower insulin resistance (IRI) as compared to HFD ([6]; 0.2% camphene in high-fat diet): 40%
lower serum LDL+VLDL cholesterol level as compared to HFD ([6]; 0.2% camphene in high-fat diet): 79%
lower serum free fatty acid level as compared to HFD ([6]; 0.2% camphene in high-fat diet): 86%
lower serum insulin level as compared to HFD ([6]; 0.2% camphene in high-fat diet): 32%
lower serum total cholesterol level as compared to HFD ([6]; 0.2% camphene in high-fat diet): 60%
lower serum triglyceride level as compared to HFD ([6]; 0.2% camphene in high-fat diet): 69%
IRI (insulin resistance index) ([6]; 10^−3 pmol insulin × mmol glucose × L^−2, camphene-administered group): 1.11 ± 0.21^b
Arteriosclerotic index ([6]; (total cholesterol − HDL cholesterol)/HDL cholesterol, camphene-administered group): 0.42 ± 0.03^b
Free fatty acid [6, 15]: 197 ± 6.7^c μEq/L
HDL cholesterol [6, 15]: 1.02 ± 0.04^c mmol/L
Insulin [6, 15]: 0.85 ± 0.23^b ng/mL
LDL + VLDL cholesterol [6, 15]: 0.44 ± 0.05^b mmol/L
Total cholesterol [6, 15]: 1.55 ± 0.11^b mmol/L
Triglyceride [6, 15]: 0.44 ± 0.05^b mmol/L
Glucose ([6]; blood, fasting, camphene-administered group): 7.6 ± 0.51^ab mmol/L
lower accumulated body weight gain as compared to HFD control group [7]: 58%
lower final body weight as compared to HFD control group [7]: 33%
lower epididymal fat weight per body weight as compared to HFD ([7]; P<0.001): 46%
lower mesenteric fat weight per body weight as compared to HFD ([7]; P<0.001): 61%
lower perirenal fat weight per body weight as compared to HFD ([7]; P<0.001): 76%
lower retroperitoneal fat weight per body weight as compared to HFD ([7]; P<0.001): 48%
lower total visceral fat weight per body weight as compared to HFD ([7]; P<0.001): 52%
IL-6 gene expression in visceral fat tissue [8]: decreased expression of TNFα and IL-6 genes back to the level of the ND group
differentiation of the preadipocytes (Oil Red O staining) ([9]; FIG. 1a): reduced the differentiation of the preadipocytes in a concentration-dependent manner
OD value (600 nm) of fats stained with Oil Red O ([9]; FIG. 1b): decreased in a concentration-dependent manner
growth of Gram-positive bacteria, Gram-negative bacteria and fungi [10]: inhibiting growth
UCP1 gene expression in visceral fat tissue [11]: increased expression
C/EBPα mRNA expression in visceral fat tissue [12]: significantly decreased expression
UCP3 gene expression in visceral fat tissue [13]: increased expression
